Measured values from ChEMBL document CHEMBL3045927, “Synthesis of 4-methyl-1,2,3-thiadiazole derivatives via Ugi reaction and their biological activities” (2010).

How the values were obtained:
Assay type in all cases: functional
Pyricularia grisea = experiment: Fungicidal activity against Magnaporthe grisea at 50 ug/ml by growth inhibition method; parameters: scale not given: the % may be the effect or the level left
Thanatephorus cucumeris = experiment: Fungicidal activity against Thanatephorus cucumeris at 50 ug/ml by growth inhibition method; parameters: scale not given: the % may be the effect or the level left
[1] = system: Botryosphaeria berengeriana; experiment: Fungicidal activity against Botryosphaeria berengeriana at 50 ug/ml by growth inhibition method; parameters: scale not given: the % may be the effect or the level left
Alternaria solani = experiment: Fungicidal activity against Alternaria solani at 50 ug/ml by growth inhibition method; parameters: scale not given: the % may be the effect or the level left
Mycosphaerella arachidis = experiment: Fungicidal activity against Mycosphaerella arachidis at 50 ug/ml by growth inhibition method; parameters: scale not given: the % may be the effect or the level left
Fusarium oxysporum = experiment: Fungicidal activity against Fusarium oxysporum at 50 ug/ml by growth inhibition method; parameters: scale not given: the % may be the effect or the level left
Cercospora beticola = experiment: Fungicidal activity against Cercospora beticola at 50 ug/ml by growth inhibition method; parameters: scale not given: the % may be the effect or the level left
Tobacco mosaic virus [2] = experiment: In vitro antiviral activity against Tobacco mosaic virus (TMV) infected tobacco leaves at 100 ug/ml
Tobacco mosaic virus [3] = experiment: In vitro antiviral activity against Tobacco mosaic virus (TMV) infected tobacco leaves at 500 ug/ml
Phytophthora infestans = experiment: Fungicidal activity against Phytophthora infestans at 50 ug/ml by growth inhibition method; parameters: scale not given: the % may be the effect or the level left
Rhizoctonia solani = experiment: Fungicidal activity against Rhizoctonia solani at 50 ug/ml by growth inhibition method; parameters: scale not given: the % may be the effect or the level left
Colletotrichum lagenaria = experiment: Fungicidal activity against Colletotrichum lagenaria at 50 ug/ml by growth inhibition method; parameters: scale not given: the % may be the effect or the level left
Fusarium graminearum = experiment: Fungicidal activity against Fusarium graminearum at 50 ug/ml by growth inhibition method; parameters: scale not given: the % may be the effect or the level left
Nicotiana tabacum [4] = experiment: Induction of systemic acquired resistance activity in TMV infected-Nicotiana tabacum (tobacco) leaves at 50 ug/ml
Nicotiana tabacum [5] = experiment: Induction of systemic acquired resistance activity in TMV infected-Nicotiana tabacum (tobacco) leaves at 100 ug/ml
Tobacco mosaic virus [6] = experiment: In vivo antiviral activity against Tobacco mosaic virus (TMV) infected tobacco leaves assessed as inactivation effect at 100 ug/ml co-treated with virus for 30 min before inoculation onto leaves measured at 2-3 days after viral challenge
Tobacco mosaic virus [7] = experiment: In vivo antiviral activity against Tobacco mosaic virus (TMV) infected tobacco leaves assessed as inactivation effect at 500 ug/ml co-treated with virus for 30 min before inoculation onto leaves measured at 2-3 days after viral challenge
Tobacco mosaic virus [8] = experiment: In vivo antiviral activity against Tobacco mosaic virus (TMV) infected tobacco leaves assessed as curative effect at 100 ug/ml treated after viral inoculation measured at 2-3 days after viral challenge
Tobacco mosaic virus [9] = experiment: In vivo antiviral activity against Tobacco mosaic virus (TMV) infected tobacco leaves assessed as curative effect at 500 ug/ml treated after viral inoculation measured at 2-3 days after viral challenge
Tobacco mosaic virus [10] = experiment: In vivo antiviral activity against Tobacco mosaic virus (TMV) infected tobacco leaves assessed as protective effect at 100 ug/ml treated 12 hr before viral inoculation measured at 2-3 days after viral challenge
Tobacco mosaic virus [11] = experiment: In vivo antiviral activity against Tobacco mosaic virus (TMV) infected tobacco leaves assessed as protective effect at 500 ug/ml treated 12 hr before viral inoculation measured at 2-3 days after viral challenge

Compound | Activity (Pyricularia grisea) [%] | Activity (Thanatephorus cucumeris) [%] | Activity [1] [%] | Activity (Alternaria solani) [%] | Activity (Mycosphaerella arachidis) [%] | Activity (Fusarium oxysporum) [%] | Activity (Cercospora beticola) [%] | inhibition at 100 µg/mL (Tobacco mosaic virus [2]) [%] | inhibition at 500 µg/mL (Tobacco mosaic virus [3]) [%] | Activity (Phytophthora infestans) [%] | Activity (Rhizoctonia solani) [%] | Activity (Colletotrichum lagenaria) [%] | Activity (Nicotiana tabacum [4]) [%] | Activity (Nicotiana tabacum [5]) [%] | Activity (Tobacco mosaic virus [6]) [%] | Activity (Tobacco mosaic virus [7]) [%] | Activity (Tobacco mosaic virus [8]) [%] | Activity (Tobacco mosaic virus [9]) [%] | Activity (Tobacco mosaic virus [10]) [%] | Activity (Tobacco mosaic virus [11]) [%] | other results
Cc1ccc(N(C(=O)c2snnc2C)C(C(=O)NC2CCCCC2)c2ccccc2[N+](=O)[O-])cc1Cl (centres undefined) | 24 | 22 | 41 | 35 | 16 | 22 | 11 | 15 | 47 | 0 | 29 | 32 | – | – | – | – | – | – | – | – | –
Cc1ccc(N(C(=O)c2snnc2C)C(C(=O)NC2CCCCC2)c2ccccc2C(F)(F)F)cc1F (centres undefined) | 29 | 11 | 23 | 44 | 29 | – | 75 | 33 | 48 | 53 | 37 | 47 | 57 | 45 | 26 | 39 | 13 | 30 | 49 | 51 | Activity (Fusarium graminearum): 15%
Cc1ccc(N(C(=O)c2snnc2C)C(C(=O)NC2CCCCC2)c2cccc(C(F)(F)F)c2)cc1F (centres undefined) | 14 | 74 | 85 | 100 | 71 | – | 0 | 29 | 67 | 88 | 97 | 95 | 68 | 38 | 21 | 31 | 28 | 42 | 19 | 54 | Activity (Fusarium graminearum): 62%
Cc1ccc(N(C(=O)c2snnc2C)C(C(=O)NC2CCCCC2)c2cccc([N+](=O)[O-])c2)cc1F (centres undefined) | 14 | 45 | 32 | 0 | 57 | – | 33 | 44 | 58 | 11 | 30 | 10 | 50 | 68 | 48 | 62 | 39 | 56 | 27 | 55 | Activity (Fusarium graminearum): 28%
Cc1ccc(N(C(=O)c2snnc2C)C(C(=O)NC2CCCCC2)c2ccc([N+](=O)[O-])cc2)cc1F (centres undefined) | 0 | 0 | 0 | 0 | 14 | – | 17 | 26 | 39 | 16 | 40 | 0 | 36 | 68 | 48 | 57 | 36 | 59 | 18 | 38 | Activity (Fusarium graminearum): 34%
Cc1ccc(N(C(=O)c2snnc2C)C(C(=O)NC2CCCCC2)c2ccccc2C)cc1F (centres undefined) | 57 | 16 | 53 | 44 | 79 | – | 67 | 23 | 52 | 47 | 51 | 43 | 63 | 58 | 27 | 60 | 18 | 47 | 23 | 35 | Activity (Fusarium graminearum): 34%
Cc1ccc(N(C(=O)c2snnc2C)C(C(=O)NC2CCCCC2)c2ccc(O)cc2)cc1F (centres undefined) | 14 | 14 | 0 | 0 | 36 | – | 17 | 20 | 70 | 0 | 40 | 5 | 44 | 65 | 65 | 68 | 34 | 43 | 40 | 55 | Activity (Fusarium graminearum): 24%
Cc1ccc(N(C(=O)c2snnc2C)C(C(=O)NC2CCCCC2)c2cccc(F)c2)cc1Cl (centres undefined) | 15 | 17 | 22 | 21 | 39 | 21 | 27 | 9 | 18 | 21 | 69 | 9 | – | – | – | – | – | – | – | – | –
Cc1ccc(N(C(=O)c2snnc2C)C(C(=O)NC2CCCCC2)c2ccc(F)cc2)cc1Cl (centres undefined) | 25 | 12 | 26 | 37 | 26 | 0 | 27 | 15 | 16 | 35 | 67 | 5 | – | – | – | – | – | – | – | – | –
Cc1ccc(N(C(=O)c2snnc2C)C(C(=O)NC2CCCCC2)c2cccc(C(F)(F)F)c2)cc1Cl (centres undefined) | 24 | 30 | 31 | 32 | 21 | 31 | 22 | 22 | 19 | 20 | 20 | 20 | – | – | – | – | – | – | – | – | –
Cc1ccc(N(C(=O)c2snnc2C)C(C(=O)NC2CCCCC2)c2ccccc2)cc1F (centres undefined) | 14 | 0 | 0 | 0 | 21 | – | 33 | 19 | 19 | 5 | 28 | 14 | 69 | 54 | 11 | 29 | 47 | 81 | 41 | 49 | Activity (Fusarium graminearum): 45%
Cc1ccc(N(C(=O)c2snnc2C)C(C(=O)NC2CCCCC2)c2ccccc2)cc1Cl (centres undefined) | 40 | 17 | 22 | 32 | 61 | 25 | 36 | 19 | 24 | 32 | 63 | 9 | – | – | – | – | – | – | – | – | –
Cc1ccc(N(C(=O)c2snnc2C)C(C(=O)NC2CCCCC2)c2ccccc2Cl)cc1Cl (centres undefined) | 40 | 12 | 13 | 26 | 48 | 0 | 27 | 19 | 20 | 26 | 67 | 5 | – | – | – | – | – | – | – | – | –
Cc1ccc(N(C(=O)c2snnc2C)C(C(=O)NC2CCCCC2)c2cccc(Cl)c2)cc1Cl (centres undefined) | 20 | 12 | 26 | 21 | 39 | 11 | 18 | 21 | 29 | 21 | 65 | 9 | – | – | – | – | – | – | – | – | –
NC(=O)c1ncn([C@@H]2O[C@H](CO)[C@@H](O)[C@H]2O)n1 [RIBAVIRIN] | – | – | – | – | – | – | – | 28 | 38 | – | – | – | 40 | 10 | 57 | 71 | 14 | 46 | 40 | 44 | –
Cc1ccc(NC(=O)c2snnc2C)cc1Cl [TIADINIL] | – | – | – | – | – | – | – | 37 | 51 | – | – | – | 47 | 49 | 70 | 70 | 12 | 44 | 35 | 48 | –
